Experimental data reported in patent US11066425B1, “Oxo-substituted compound” (SUMITOMO DAINIPPON PHARMA CO., LTD., priority 2018, dated 2021).
Values joined by “and” are separate entries in the source; they are usually repeats but may differ in a detail not shown here. Identical values can stand only once. Counter-ions that a name gives are not always drawn.

Key:
[1] = tested on: β-lactamase producing bacteria; assay: Test Example 3: MIC of meropenem (MEPM) combined with test compound at fixed 4 μg/mL, broth microdilution, ratio to MEPM alone; format: cell-based; details: for MIC of MEPM in combination with a test compound: test compound at fixed 4 μg/mL, numerator of the cell; for MIC of MEPM alone: no test compound, denominator of the cell, comparator for the example, in µg/mL
Procedure: Test Example 3: Evaluation of Minimum Inhibitory Concentration (MIC) of MEPM Against β-Lactamase Producing Bacteria
To evaluate the β-lactamase inhibitory activity of test compounds, the effect of combination of a test compound and a β-lactam agent against β-lactamase producing bacteria was evaluated. Meropenem (MEPM) was used as a β-lactam antimicrobial agent. The minimum inhibitory concentration (MIC) of MEPM against β-lactamase producing bacteria when a test compound was added at a fixed concentration (4 μg/mL) was measured by broth microdilution method (common ratio: 2).

[2] = tested on: β-lactamase producing bacteria; assay: Test Example 1: MIC of meropenem (MEPM) combined with test compound at fixed 4 μg/mL, broth microdilution; format: cell-based; details: relative to MEPM alone
Procedure: Test Example 1: Evaluation of Minimum Inhibitory Concentration (MIC) of MEPM Against β-Lactamase Producing Bacteria
To evaluate the β-lactamase inhibitory activity of test compounds, the effect of combination of a test compound and a β-lactam agent against β-lactamase producing bacteria was evaluated. Meropenem (MEPM) was used as a β-lactam antimicrobial agent. The minimum inhibitory concentration (MIC) of MEPM against β-lactamase producing bacteria when a test compound was added at a fixed concentration (4 μg/mL) was measured by broth microdilution method (common ratio: 2). MIC of MEPM decreasing to less than 1/32 in combination with a test compound is indicated by A, decreasing from 1/32 to 1/16 is indicated by B, decreasing from ⅛ to ¼ is indicated by C, and decreasing to ½ or others are indicated by D. “-” represents untested cases.

[3] = K. pneumoniae ATCC BAA-2344 (KPC)
[4] = K. pneumoniae ATCC BAA-2524 (OXA-48)

Compound	Decrease of MIC of MEPM in combination with a test compound, K. pneumoniae ATCC BAA-2344 (KPC) [2]	Decrease of MIC of MEPM in combination with a test compound, K. pneumoniae ATCC BAA-2524 (OXA-48) [2]	also measured
4,4-dihydroxy-8-({1-[3-(pyrrolidin-2-yl)propanoyl]azetidin-3-yl}oxy)-5-oxa-4-boranuidabicyclo[4.4.0]deca-l(6),7,9-triene-7-carboxylic acid disodium salt [Example 118]	–	–	MIC of MEPM in combination with a test compound [1, 3]: ≤ 0.063 µg/mL; MIC of MEPM in combination with a test compound [1, 4]: ≤ 0.063 µg/mL
N[C@H](Cc1cnc[nH]1)C(=O)N1CC(Oc2ccc3c(c2C(=O)O)O[B-](O)(O)CC3)C1 [Example 27, 8-[(1-D-histidylazetidin-3-yl)oxy]-4,4-dihydroxy-5-oxa-4-boranuidabicyclo[4.4.0]deca-l(6),7,9-triene-7-carboxylic acid disodium salt]	A (MIC of MEPM decreasing to less than 1/32 in combination with a test compound is indicated by A)	B (decreasing from 1/32 to 1/16 is indicated by B)	–
CC(C)[C@@H](N)C(=O)N1CC(Oc2ccc3c(c2C(=O)O)O[B-](O)(O)CC3)C1 [Example 28, 4,4-dihydroxy-8-[(1-D-valylazetidin-3-yl)oxy]-5-oxa-4-boranuidabicyclo[4.4.0]deca-l(6),7,9-triene-7-carboxylic acid disodium salt]	A (MIC of MEPM decreasing to less than 1/32 in combination with a test compound is indicated by A)	B (decreasing from 1/32 to 1/16 is indicated by B)	Decrease of MIC of MEPM in combination with a test compound, E. coli ATCC BAA-2340 (KPC) [2]: A (MIC of MEPM decreasing to less than 1/32 in combination with a test compound is indicated by A)
N[C@@H](Cc1cnc[nH]1)C(=O)N1CC(Oc2ccc3c(c2C(=O)O)O[B-](O)(O)CC3)C1 [Example 29, 8-[(1-L-histidylazetidin-3-yl)oxy]-4,4-dihydroxy-5-oxa-4-boranuidabicyclo[4.4.0]deca-l(6),7,9-triene-7-carboxylic acid disodium salt]	A (MIC of MEPM decreasing to less than 1/32 in combination with a test compound is indicated by A)	B (decreasing from 1/32 to 1/16 is indicated by B)	–
CCN1CCN(C(=O)N[C@@H](C(=O)N2CC(Oc3ccc4c(c3C(=O)O)O[B-](O)(O)CC4)C2)c2ccccc2)C(=O)C1=O [Example 30, 8-[(1-{(2R)-2-[(4-ethyl-2,3-dioxopiperazine-1-carbonyl)amino]-2-phenylacetyl}azetidin-3-yl)oxy]-4,4-dihydroxy-5-oxa-4-boranuidabicyclo[4.4.0]deca-l(6),7,9-triene-7-carboxylic acid disodium salt]	A (MIC of MEPM decreasing to less than 1/32 in combination with a test compound is indicated by A)	B (decreasing from 1/32 to 1/16 is indicated by B)	–
O=C(O)c1c(OC2CN(C(=O)[C@H]3CCCN3)C2)ccc2c1O[B-](O)(O)CC2 [Example 31, 4,4-dihydroxy-8-[(1-D-prolylazetidin-3-yl)oxy]-5-oxa-4-boranuidabicyclo[4.4.0]deca-l(6),7,9-triene-7-carboxylic acid disodium salt]	A (MIC of MEPM decreasing to less than 1/32 in combination with a test compound is indicated by A)	B (decreasing from 1/32 to 1/16 is indicated by B)	–
O=C(O)c1c(OC2CN(C(=O)[C@@H]3CCCN3)C2)ccc2c1O[B-](O)(O)CC2 [Example 32, 4,4-dihydroxy-8-[(1-L-prolylazetidin-3-yl)oxy]-5-oxa-4-boranuidabicyclo[4.4.0]deca-l(6),7,9-triene-7-carboxylic acid disodium salt]	A (MIC of MEPM decreasing to less than 1/32 in combination with a test compound is indicated by A)	B (decreasing from 1/32 to 1/16 is indicated by B)	–
NCCc1cn(CC(=O)N2CC(Oc3ccc4c(c3C(=O)O)O[B-](O)(O)CC4)C2)cn1 [Example 33, 8-[(1-{[4-(2-aminoethyl)-1H-imidazol-1-yl]acetyl}azetidin-3-yl)oxy]-4,4-dihydroxy-5-oxa-4-boranuidabicyclo[4.4.0]deca-l(6),7,9-triene-7-carboxylic acid disodium salt]	A (MIC of MEPM decreasing to less than 1/32 in combination with a test compound is indicated by A)	B (decreasing from 1/32 to 1/16 is indicated by B)	–
O=C(O)c1c(OC2CN(C(=O)c3ccc(O)c(O)c3)C2)ccc2c1OB(O)CC2 [Example 34, 7-{[1-(3,4-dihydroxybenzoyl)azetidin-3-yl]oxy}-2-hydroxy-3,4-dihydro-2H-1,2-benzoxaborinine-8-carboxylic acid]	A (MIC of MEPM decreasing to less than 1/32 in combination with a test compound is indicated by A)	B (decreasing from 1/32 to 1/16 is indicated by B)	–
O=C(O)c1c(OC2CN(C(=O)NO)C2)ccc2c1OB(O)CC2 [Example 35, 2-hydroxy-7-{[1-(hydroxycarbamoyl)azetidin-3-yl]oxy}-3,4-dihydro-2H-1,2-benzoxaborinine-8-carboxylic Acid]	A (MIC of MEPM decreasing to less than 1/32 in combination with a test compound is indicated by A)	B (decreasing from 1/32 to 1/16 is indicated by B)	Decrease of MIC of MEPM in combination with a test compound, E. coli ATCC BAA-2340 (KPC) [2]: A (MIC of MEPM decreasing to less than 1/32 in combination with a test compound is indicated by A)
Cl.Cl.NC(C(=O)N1CC(Oc2ccc3c(c2C(=O)O)OB(O)CC3)C1)c1c[nH]cn1 (stereo not shown) [Example 40, 7-({1-[2-amino-2-(1H-imidazol-4-yl)(2H)ethanoyl]azetidin-3-yl}oxy)-2-hydroxy-3,4-dihydro-2H-1,2-benzoxaborinine-8-carboxylic Acid Dihydrochloride]	–	–	MIC of MEPM in combination with a test compound [1, 3]: 0.063 µg/mL; MIC of MEPM in combination with a test compound [1, 4]: 0.063 µg/mL
O=C(O)c1c(OC2CN(C(=O)C[C@@H]3CCCN3)C2)ccc2c1O[B-](O)(O)CC2.O=C(O)c1c(OC2CN(C(=O)C[C@@H]3CCCN3)C2)ccc2c1O[B-](O)(O)CC2.[Na+].[Na+] [Example 127, 4,4-dihydroxy-8-[(1-{[(2S)-pyrrolidin-2-yl]acetyl}azetidin-3-yl)oxy]-5-oxa-4-boranuidabicyclo[4.4.0]deca-l(6),7,9-triene-7-carboxylic acid disodium salt]	–	–	MIC of MEPM in combination with a test compound [1, 3]: ≤ 0.063 µg/mL; MIC of MEPM in combination with a test compound [1, 4]: ≤ 0.063 µg/mL
C[C@@H](O)[C@H]1C(=O)N2C(C(=O)O)=C(S[C@@H]3CN[C@H](C(=O)N(C)C)C3)[C@H](C)[C@H]12 [MEPM, meropenem, reference compound]	–	–	MIC of MEPM alone ([1]; E. coli ATCC BAA-2340 (KPC)): 4 and 8; MIC of MEPM alone [1, 4]: 2 and 1
